# ChEMBL document CHEMBL1649066, “An imidazopiperidine series of CCR5 antagonists for the treatment of HIV: the discovery of N-{(1S)-1-(3-fluorophenyl)-3-[(3-endo)-3-(5-isobutyryl-2-methyl-4,5,6,7-tetrahydro-1H-imidazo[4,5-c]pyridin-1-yl)-8-azabicyclo[3.2.1]oct-8-yl]propyl}acetamide (PF-232798)” (J Med Chem, 2011)
# The source made the active and inactive calls. The calls are words filed in the database; no cut-off is given here.
# Legend:
# [1] = Oral bioavailability in dog at 0.5 mg/kg; format: ADME, organism-based, Canis lupus familiaris; conditions: in vivo
# [2] = Tmax in dog at 0.5 mg/kg, po; format: ADME, organism-based, Canis lupus familiaris; parameters: dose 0.5 mg/kg, route oral; conditions: in vivo
# [3] = target: Voltage-gated inwardly rectifying potassium channel KCNH2 (Homo sapiens, UniProt Q12809)
# Sequence of Voltage-gated inwardly rectifying potassium channel KCNH2 (Q12809 whole entry): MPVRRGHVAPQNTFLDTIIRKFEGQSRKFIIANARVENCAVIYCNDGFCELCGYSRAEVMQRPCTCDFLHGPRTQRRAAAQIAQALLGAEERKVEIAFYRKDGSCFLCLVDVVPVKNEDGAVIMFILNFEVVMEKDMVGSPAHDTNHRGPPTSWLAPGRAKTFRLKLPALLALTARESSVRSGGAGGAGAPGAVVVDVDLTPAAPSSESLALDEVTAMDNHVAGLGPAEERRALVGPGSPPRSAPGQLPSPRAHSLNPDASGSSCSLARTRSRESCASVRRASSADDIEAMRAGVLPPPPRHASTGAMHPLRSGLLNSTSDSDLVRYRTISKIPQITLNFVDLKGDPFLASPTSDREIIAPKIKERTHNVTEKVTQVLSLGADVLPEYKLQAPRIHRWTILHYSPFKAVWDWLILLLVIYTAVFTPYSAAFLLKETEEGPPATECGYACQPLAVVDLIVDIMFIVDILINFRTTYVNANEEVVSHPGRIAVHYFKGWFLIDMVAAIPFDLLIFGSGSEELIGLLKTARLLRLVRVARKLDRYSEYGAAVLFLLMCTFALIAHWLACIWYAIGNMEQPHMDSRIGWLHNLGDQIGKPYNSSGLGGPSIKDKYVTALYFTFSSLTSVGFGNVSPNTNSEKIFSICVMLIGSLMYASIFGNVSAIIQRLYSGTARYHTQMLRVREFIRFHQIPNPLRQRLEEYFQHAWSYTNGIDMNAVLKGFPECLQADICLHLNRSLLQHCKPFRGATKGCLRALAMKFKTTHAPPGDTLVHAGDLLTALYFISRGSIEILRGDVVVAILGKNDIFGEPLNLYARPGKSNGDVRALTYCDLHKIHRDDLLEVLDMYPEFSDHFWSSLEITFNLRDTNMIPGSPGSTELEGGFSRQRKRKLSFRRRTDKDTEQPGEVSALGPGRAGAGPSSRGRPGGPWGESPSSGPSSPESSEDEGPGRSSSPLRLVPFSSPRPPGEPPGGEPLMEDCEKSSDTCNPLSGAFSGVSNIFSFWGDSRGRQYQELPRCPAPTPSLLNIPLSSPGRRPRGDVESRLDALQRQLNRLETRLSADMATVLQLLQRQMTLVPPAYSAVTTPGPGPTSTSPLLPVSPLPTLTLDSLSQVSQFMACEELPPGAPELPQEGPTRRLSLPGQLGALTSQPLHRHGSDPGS
# Description: Displacement of [3H]-dofetilide from human ERG expressed in HEK293 cells
# [4] = tested on: Human immunodeficiency virus 1; assay: Antiviral activity against maraviroc-resistant HIV1 isolate CC185 at 100 times IC90 concentration; format: functional, organism-based
# [5] = Clearance in rat at 1 mg/kg, iv and 2 mg/kg, po; format: ADME, organism-based; conditions: in vivo
# Canis familiaris [6] = assay: Unbound clearance in dog at 0.5 mg/kg, iv and 0.5 mg/kg, po; format: ADME, organism-based, Canis lupus familiaris; conditions: in vivo
# [7] = Clearance in dog at 0.5 mg/kg, iv and 0.5 mg/kg, po; format: ADME, organism-based, Canis lupus familiaris; conditions: in vivo
# [8] = Intrinsic clearance in human liver microsomes assessed per mg of protein; format: ADME, Microsome
# [9] = Oral bioavailability in rat at 2 mg/kg; format: ADME, organism-based; conditions: in vivo
# [10] = Plasma protein binding in rat at 1 mg/kg, iv and 2 mg/kg, po; format: ADME, organism-based; conditions: read-out: PPB (converted)
# [11] = Half life in rat at 1 mg/kg, iv and 2 mg/kg, po; format: ADME, organism-based; conditions: in vivo
# [12] = tested on: Human immunodeficiency virus 1; assay: Antiviral activity against maraviroc-resistant HIV1 isolate CC185 at 10 times IC90 concentration; format: functional, organism-based
# [13] = Apparent permeability from apical to basolateral side of human Caco2 cells; conditions: Caco-2
# [14] = Volume of distribution in dog at 0.5 mg/kg, iv and 0.5 mg/kg, po; format: ADME, organism-based, Canis lupus familiaris; conditions: in vivo
# [15] = Apparent permeability from basolateral to apical side of human Caco2 cells; conditions: Caco-2
# Rattus norvegicus [16] = assay: Unbound clearance in rat at 1 mg/kg, iv and 2 mg/kg, po; format: ADME, organism-based; conditions: in vivo
# [17] = Half life in dog at 0.5 mg/kg, iv and 0.5 mg/kg, po; format: ADME, organism-based, Canis lupus familiaris; conditions: in vivo
# [18] = tested on: Human immunodeficiency virus 1; assay: Antiviral activity against maraviroc-resistant HIV1 isolate CC185 at IC90 concentration; format: functional, organism-based
# [19] = Octanol-buffer partition coefficient, log D of the compound
# [20] = tested on: Human immunodeficiency virus; assay: Antiviral activity against HIV Ba-L infected in PBMC; format: functional; conditions: Human immunodeficiency virus 1, Ba-L
# [21] = Intrinsic clearance in dog liver microsomes assessed per mg of protein; format: ADME, Canis lupus familiaris, Microsome
# [22] = Plasma protein binding in dog at 0.5 mg/kg, iv and 0.5 mg/kg, po; format: ADME, organism-based, Canis lupus familiaris; conditions: read-out: PPB (converted)
# [23] = Intrinsic clearance in rat liver microsomes assessed per mg of protein; format: ADME, Microsome
# [24] = Absorption in rat at 1 mg/kg, iv and 10 mg/kg, po; format: ADME, organism-based; conditions: in vivo, read-out: Activity
# [25] = Absorption in dog at 0.5 mg/kg, iv and 1 mg/kg, po; format: ADME, organism-based, Canis lupus familiaris; conditions: in vivo, read-out: Activity
# [26] = Oral bioavailability in rat at 10 mg/kg; format: ADME, organism-based; conditions: in vivo
# Canis familiaris [27] = assay: fCmax in dog at 0.5 mg/kg, po; format: ADME, organism-based, Canis lupus familiaris; parameters: dose 0.5 mg/kg, route oral; conditions: in vivo
# [28] = Tmax in rat at 10 mg/kg, po; format: ADME, organism-based; parameters: dose 10 mg/kg, route oral; conditions: in vivo
# [29] = Plasma protein binding in rat at 1 mg/kg, iv and 10 mg/kg, po; format: ADME, organism-based; conditions: read-out: PPB (converted)
# Rattus norvegicus [30] = assay: Unbound clearance in rat at 1 mg/kg, iv and 10 mg/kg, po; format: ADME, organism-based; conditions: in vivo
# [31] = Oral bioavailability in dog at 1 mg/kg; format: ADME, organism-based, Canis lupus familiaris; conditions: in vivo
# [32] = Volume of distribution in dog at 0.5 mg/kg, iv and 1 mg/kg, po; format: ADME, organism-based, Canis lupus familiaris; conditions: in vivo
# Canis familiaris [33] = assay: Unbound clearance in dog at 0.5 mg/kg, iv and 1 mg/kg, po; format: ADME, organism-based, Canis lupus familiaris; conditions: in vivo
# [34] = Half life in dog at 0.5 mg/kg, iv and 1 mg/kg, po; format: ADME, organism-based, Canis lupus familiaris; conditions: in vivo
# [35] = Plasma protein binding in dog at 0.5 mg/kg, iv and 1 mg/kg, po; format: ADME, organism-based, Canis lupus familiaris; conditions: read-out: PPB (converted)
# [36] = Half life in rat at 1 mg/kg, iv and 10 mg/kg, po; format: ADME, organism-based; conditions: in vivo
# [37] = Clearance in rat at 1 mg/kg, iv and 10 mg/kg, po; format: ADME, organism-based; conditions: in vivo
# Rattus norvegicus [38] = assay: fCmax in rat at 10 mg/kg, po; format: ADME, organism-based; parameters: dose 10 mg/kg, route oral; conditions: in vivo
# [39] = Tmax in rat at 2 mg/kg, po; format: ADME, organism-based; parameters: dose 2 mg/kg, route oral; conditions: in vivo
# [40] = Clearance in rat at 2 mg/kg, iv and 2 mg/kg, po; format: ADME, organism-based; conditions: in vivo
# Rattus norvegicus [41] = assay: Unbound clearance in rat at 2 mg/kg, iv and 2 mg/kg, po; format: ADME, organism-based; conditions: in vivo
# [42] = Plasma protein binding in rat at 2 mg/kg, iv and 2 mg/kg, po; format: ADME, organism-based; conditions: read-out: PPB (converted)
# Rattus norvegicus [43] = assay: fCmax in rat at 2 mg/kg, po; format: ADME, organism-based; parameters: dose 2 mg/kg, route oral; conditions: in vivo
# [44] = Half life in rat at 2 mg/kg, iv and 2 mg/kg, po; format: ADME, organism-based; conditions: in vivo
SMILES,bioavailability [1],Tmax [2],IC50 [3],Activity [4],clearance [5],CL (Canis familiaris [6]),clearance [7],microsomal CLint [8],bioavailability [9],fraction unbound [10],Activity [12],Papp A→B [13],Vd [14],Papp B→A [15],half-life [17],Activity [18],IC90 [20],microsomal CLint [21],fraction unbound [22],microsomal CLint [23],other results
CC(=O)N[C@@H](CCN1[C@@H]2CC[C@H]1C[C@@H](n1c(C)nc3c1CCN(C(=O)C(C)C)C3)C2)c1cccc(F)c1 [PF-232798],31%,1 h,12000 nM,Active,12.1 L/h/kg,3.78 L/h/kg,2.16 L/h/kg,13 µL/min/mg,< 5%,0.38,Active,20 nm/s,10.5 L/kg,80 nm/s,3.4 h,Active,2 nM,< 9 µL/min/mg,0.53,< 6 µL/min/mg,half-life [11]: 1.4 h; CL (Rattus norvegicus [16]): 31.6 L/h/kg; logD [19]: 2
Cc1nnc(C(C)C)n1[C@@H]1C[C@H]2CC[C@@H](C1)N2CC[C@H](NC(=O)C1CCC(F)(F)CC1)c1ccccc1 [MARAVIROC],,1.5 h,,,,,,49 µL/min/mg,,,,< 10 nm/s,,120 nm/s,,,,< 9 µL/min/mg,,< 6 µL/min/mg,Fa [24]: 20%; Fa [25]: 70%; bioavailability [26]: 6%; Cmax_unbound (Canis familiaris [27]): 0.08 µM; Tmax [28]: 2 h; fraction unbound [29]: 0.54; CL (Rattus norvegicus [30]): 8.22 L/h/kg; bioavailability [31]: 42%; Vd [32]: 4.3 L/kg; CL (Canis familiaris [33]): 3.18 L/h/kg; half-life [34]: 2.3 h; fraction unbound [35]: 0.4; half-life [36]: 2.3 h; clearance [37]: 4.44 L/h/kg; Cmax_unbound (Rattus norvegicus [38]): 0.073 µM
COC(=O)N1CCc2nc(C)n([C@H]3C[C@H]4CC[C@@H](C3)N4CC[C@H](NC(C)=O)c3cccc(F)c3)c2C1,42%,0.25 h,,Active,2.76 L/h/kg,5.58 L/h/kg,2.16 L/h/kg,19 µL/min/mg,8%,0.29,Active,,11.8 L/kg,,3.8 h,Active,1.6 nM,32 µL/min/mg,0.38,15 µL/min/mg,half-life [11]: 1.7 h; CL (Rattus norvegicus [16]): 31.1 L/h/kg; Tmax [39]: 2 h
Cc1nnc(C(C)C)n1[C@H]1C[C@H]2CC[C@@H](C1)N2CC[C@H](NC(=O)C1CCC(F)(F)CC1)c1ccccc1 [MARAVIROC],,,,,,,,,,,,,,,,,3.2 nM,,,,
COC(=O)N1CCc2c(nc(C)n2[C@H]2C[C@H]3CC[C@@H](C2)N3CC[C@H](NC(C)=O)c2cccc(F)c2)C1,50%,0.5 h,2000 nM,Active,,9 L/h/kg,2.16 L/h/kg,< 8 µL/min/mg,20%,,Active,30 nm/s,9.9 L/kg,110 nm/s,3.3 h,Active,0.8 nM,< 9 µL/min/mg,0.27,< 6 µL/min/mg,Cmax_unbound (Canis familiaris [27]): 0.009 µM; clearance [40]: 5.46 L/h/kg; CL (Rattus norvegicus [41]): 15.2 L/h/kg; fraction unbound [42]: 0.32; Cmax_unbound (Rattus norvegicus [43]): 0.208 µM; Tmax [39]: 2 h; logD [19]: 1.9; half-life [44]: 2.3 h
